US11518777B2, “Inhibitors of the shikimate pathway” (Eberhard Karls Universität Tübingen, priority 2017, dated 2022)

Key:
[1] = tested on: A. thaliana; test: Germination and seedling size of A. thaliana on agar containing inhibitor; conditions: for root and cotyledons formation: 260 μM (glyphosate equimolar)
[2] = tested on: Legionella; assay type: cell-based; conditions: natural water samples, 37° C., after ten days

Structure (SMILES)	gravitropism of the seedlings ([1]; 260 μM)	root and cotyledons formation [1]	size of the seedlings ([1]; 260 μM, 7 days of germination) [mm]	size of the seedlings compared to the control ([1]; 260 μM, 7 days of germination)	germination process ([1]; 130-260 μM)	inhibitory capacity on A. thaliana compared to glyphosate (seedling-size and morphological appearance) ([1]; concentrations higher than 130 μM (~25 μg/mL))	growth inhibitory effects on A. thaliana ([1]; concentrations up to 50 μM, 7 days of germination)	number of CFUs of Legionella, times lower compared to the control [2]
C[C@@H](O)[C@@H](O)[C@@H](O)[C@H](O)C(=O)CO [7dSh, 7-deoxy-D-altro-heptulose]	impaired in gravitropism	only minor root and cotyledons formation was observed	~2	three times lower	came to an arrest within the first days	significant increased inhibitory capacity	comparable to glyphosate	4-5 times lower
O=C(O)CNCP(=O)(O)O [glyphosate, reference compound]		developed further and showed more distinct root and cotyledons formation						
